Source: US20240398749A1, “INHALABLE PROTEASE INHIBITORS FOR USE IN THE PREVENTION AND/OR TREATMENT OF FIBROTIC AUTOIMMUNE OR INFLAMMATORY LUNG DISEASES” (priority 2021, published 2024)
Values joined by “and” are separate entries in the source; they are usually repeats but may differ in a detail not shown here. Identical values can stand only once. Like-named read-outs stand apart in the source and are kept apart here.

Tests used:
Th17-lymphocytes = test: Measurement of Th17-lymphocytes by flow cytometry; type: cell-based, human
IL-17 release = IL-17 release from human mononuclear cells in whole blood stimulated with cytokines; type: cell-based
A549 cells [1] = test: IL-8 release from A549 cells, spontaneous or TGFbeta-induced; type: cell-based; conditions: TGFbeta stimulation, 24 h, 10 μg/ml E64D
[2] = test system: THP1 cells (macrophage-like cell line); test: IL-8 release from stimulated THP1 cells; type: cell-based; conditions: IL-1 or TNF/IL-1 stimulated cells, 24 hours
Procedure: This stimulation corresponds to a pro-inflammatory response. The supernatants were then removed, and the IL-8 release was measured.

A549 cells [3] = type: cell-based
[4] = Nebulizer test / cascade impactor measurements with M-neb dose+; type: physicochemical
Wistar rats = test: Dose range finding study, 14 days nose-only inhalation; type: in vivo; conditions: for lung with a spongy consistency (animals affected): females
Text: The purpose of this study was to perform a dose range finding (DRF) study using 14 days nose-only-inhaled Aloxistatin in rats. Possible side effects of Aloxistatin were characterized based on clinical observations, body weight, hematology, clinical pathology, macroscopic examination and histopathology of selected organs (respiratory tract, heart, kidneys, liver and spleen). Additionally, the setup of chemical analysis method for toxicokinetic analysis was established.
For the study, 64 Wistar rats [Crl:Wistar(Han)] received the test item at doses of 22.67, 68 or 227 μg/kg bw for 14 consecutive days via nose-only inhalation. Ethanol ≥96% was used as vehicle. Animals of the main study were sacrificed on […].
All animals were clinically observed in their cages at least once a day. Individual body weights were determined twice weekly. Blood samples for hematology and clinical chemistry were withdrawn before the exposure and on day 14. Necropsy, including a macroscopic evaluation of selected organs, was performed on day 15 or day 29 followed by histopathology of preselected organs. All macroscopic changes were recorded. Blood and lung sampling for setup of chemical analysis method for toxicokinetic analysis was performed on day 1 and 15 and upon sacrifice (day 2 and 15), respectively.

SARS-CoV-2 [5] = type: cell-based; conditions: HEK293-ACE2, MOI 5, 100 μM
SARS-CoV-2 [6] = type: cell-based; conditions: A549, MOI 5, 100 μM
pseudovirus = test: Pseudovirus inoculation of human ACE2 transgenic mice, bioluminescence assay; type: in vivo; conditions: pre-treated via tail vein injection 2 days prior to virus inoculation; 1 day post infection
fibroblasts = type: cell-based
Vero e6-cells = conditions: concentrations up to 100 μM
Th17 differentiation = conditions: rats; cited from earlier work
Mouse-Coronavirus = Mouse-Coronavirus model systems; cited from earlier work
SARS-CoV-2 [7] = conditions: E64d added to the TMPRSS2 inhibitor Camostat; cited from earlier work
physchem = conditions: organic solvent or mixture
[8] = in vivo, po; cited from earlier work
[9] = cited from earlier work
[10] = test system: human peripheral blood cells (PBI); test: Chromosome aberration test
[11] = test system: Salmonella typhimurium strains TA 1535, TA 1537, TA 98, TA 100, and the Escherichia coli strain WP2 uvrA; test: Reverse mutation assay (plate incorporation test)
rats = test: Toxicology study, 14-day inhalational applications; conditions: inhalation on 14 consecutive days
mice = conditions: cited from earlier work
[12] = 22.67, 68 or 227 μg/kg bw, 14 days nose-only inhalation

Compound: CCOC(=O)[C@H]1O[C@@H]1C(=O)N[C@@H](CC(C)C)C(=O)NCCC(C)C [E64D, aloxistatin]
- polarization of Th2-lymphocytes (Th17-lymphocytes): polarize Th2-lymphocytes into Th1-lymphocytes
- Th1 cells (Th17-lymphocytes; co-incubation with E64D): dose-dependently up-regulates
- Th17 and Th17.1 cells (Th17-lymphocytes; co-incubation with E64D): dose-dependently down-regulates
- Treg lymphocytes (Th17-lymphocytes; co-incubation with E64D): upregulation of Treg lymphocytes
- percentage of Th17 cells (Th17-lymphocytes; stimulation with IC-beads, with or without cytokine mix, whole blood lymphocytes and T-lymphocytes from bronchoalveolar lavage): reduces the percentage of Th17 cells
- release of the cytokine IL-17 (IL-17 release): can be inhibited
- TGFbeta-induced IL-8 release (A549 cells [1]): block the induction almost completely
- IL-8 release [2]: clearly lowers the IL-8 release
- TGF-beta induced release of alpha-smooth muscle actin (aSMA) (A549 cells [3]): inhibits the TGF-beta induced release
- TGF-beta induced release of collagen 1 (A549 cells [3]): inhibits the TGF-beta induced release
- TGFbeta-induced collagen production (A549 cells [3]): lowers the TGFbeta-induced collagen production of A549 in a dose-dependent manner
- TGFbeta-induced collagen release at highest dose (A549 cells [3]): almost goes back to the initial value
- aerosol output (fraction of actually inhaled E64d) ([4]; 0.34 mg/ml solution): 80%
- aerosol output (fraction of actually inhaled E64d) ([4]; 34 mg/ml solution): 63%
- fine particle fraction (<5 μm) ([4]; all concentrations tested (0.34, 3.4 and 34 mg/ml)): > 95%
- aerosol release rate ([4]; concentration of the solution 340 ug/ml): 0.108 mg/min
- aerosol release rate ([4]; concentration of the solution 3.4 mg/ml): 1 mg/min
- aerosol release rate ([4]; concentration of the solution 34 mg/ml): 8.7 mg/min
- cumulative active compound deposition ([4]; particle size distribution about 0.5-3 μm, impactor assays): > 99%
- body weight (Wistar rats; [12]): no statistical differences between the groups
- changes in clinical chemistry parameters (Wistar rats; [12]): considered incidental
- clinical observations (Wistar rats; [12]): no clinical observations were noted
- mortality (Wistar rats; [12]): No animal was found dead or killed moribund
- lung with a spongy consistency (animals affected) (Wistar rats; low dose group): 1/5
- lung with a spongy consistency (animals affected) (Wistar rats; medium dose group): 1/5
- slightly enlarged lung-associated lymph nodes (animals affected) (Wistar rats; male animals, medium dose group, macroscopic examination): 2/5
- histopathological examination (Wistar rats; respiratory tract, lymph nodes, heart, kidneys, liver, spleen, after 14 days and after 14 days recovery): no treatment-related findings were detected
- cell lysis (SARS-CoV-2 [5]): effectively inhibited
- virus replication of SARS-CoV-2 (SARS-CoV-2 [5]): effectively inhibited
- cell lysis (SARS-CoV-2 [6]): effectively inhibited
- virus replication of SARS-CoV-2 (SARS-CoV-2 [6]): effectively inhibited
- bioluminescence activity (virus replication) (pseudovirus): decrease in bioluminescence activity
- IL-17 induced proliferation and differentiation of fibroblasts (fibroblasts): inhibiting the IL-17 induced proliferation and differentiation of fibroblasts
- cytotoxicity (Vero e6-cells): non-toxic
- Th17 differentiation (Th17 differentiation): suppresses Th17 differentiation in a dose-dependent manner
- virus replication (Mouse-Coronavirus): effective inhibition of virus replication
- inhibition of virus entry (SARS-CoV-2 [7]): additive efficacy
- solubility (physchem): ≤ 68000 µg/mL and ≤ 199000 µM
- dose absorbed [8]: at least 60%
- serum AST and ALT activities ([9]; rat, in vivo): rose dramatically
- time of minimum liver GSH level after administration ([9]; rat, in vivo): 5 h
- liver glutathion (GSH) levels ([9]; rats): obvious drop
- aberrant cells (gaps excluded) ([10]; after 4 h of treatment, both without and with S9-mix): only one aberrant cell
- structural chromosome aberrations ([10]; treated PBL): nearly complete absence of structural chromosome aberrations
- precipitation in the overlay agar on the incubated agar plates [11]: 5000 μg/plate
- toxic effects (reduction in the number of revertants) ([11]; all strains, with and without metabolic activation, up to 5000 μg/plate): No toxic effects
- increase in revertant colony numbers ([11]; five tester strains, any dose level, with and without S9 mix): No substantial increase
- mutagenicity ([11]; reverse mutation assay conclusion): non-mutagenic
- No-Observed-Adverse-Effect-Level (NOAEL), pulmonary dose (rats): 413 μg/kg bw

Compound: CC(C)C[C@H](NC(=O)[C@H]1O[C@@H]1C(=O)O)C(=O)NCCCCN=C(N)N [E64]
- emphysematous changes (mice): markedly attenuated emphysematous changes
